Measurements as given in publication PMC11850817 (Scientific Reports, 2025).

How the values were obtained:
FLT1 (VEGFR1) = FLT1 (VEGFR1) (Homo sapiens, UniProt P17948); assay: Radiometric kinase assay; assay type: biochemical; conditions: read-out: Kinase inhibition (%) FLT1 (VEGFR1)
KDR (VEGFR2) = KDR (VEGFR2) (Homo sapiens, UniProt P35968); assay: Radiometric kinase assay; assay type: biochemical; conditions: read-out: Kinase inhibition (%) KDR (VEGFR2)
NTRK1 (TrkA) = NTRK1 (TrkA) (Homo sapiens, UniProt P04629); assay: Radiometric kinase assay; assay type: biochemical; conditions: read-out: Kinase inhibition (%) NTRK1 (TrkA)
FLT3 = FLT3 (Homo sapiens, UniProt P36888); assay: Radiometric kinase assay; assay type: biochemical; conditions: read-out: Kinase inhibition (%) FLT3
MET = MET (Homo sapiens, UniProt P08581); assay: Radiometric kinase assay; assay type: biochemical; conditions: read-out: Kinase inhibition (%) MET
AKT2 = AKT2 (Homo sapiens, UniProt P31751); assay: Radiometric kinase assay; assay type: biochemical; conditions: read-out: Kinase inhibition (%) AKT2
ALK = ALK (Homo sapiens, UniProt Q9UM73); assay: Radiometric kinase assay; assay type: biochemical; conditions: read-out: Kinase inhibition (%) ALK
EGFR = EGFR (Homo sapiens, UniProt P00533); assay: Radiometric kinase assay; assay type: biochemical; conditions: read-out: Kinase inhibition (%) EGFR
FGFR1 = FGFR1 (Homo sapiens, UniProt P11362); assay: Radiometric kinase assay; assay type: biochemical; conditions: read-out: Kinase inhibition (%) FGFR1
AXL = biological target: T1, AXL (Homo sapiens, UniProt P30530); assay: Radiometric kinase assay; assay type: biochemical; conditions: read-out: Kinase inhibition (%) AXL
T1 sequence (P30530 26-894): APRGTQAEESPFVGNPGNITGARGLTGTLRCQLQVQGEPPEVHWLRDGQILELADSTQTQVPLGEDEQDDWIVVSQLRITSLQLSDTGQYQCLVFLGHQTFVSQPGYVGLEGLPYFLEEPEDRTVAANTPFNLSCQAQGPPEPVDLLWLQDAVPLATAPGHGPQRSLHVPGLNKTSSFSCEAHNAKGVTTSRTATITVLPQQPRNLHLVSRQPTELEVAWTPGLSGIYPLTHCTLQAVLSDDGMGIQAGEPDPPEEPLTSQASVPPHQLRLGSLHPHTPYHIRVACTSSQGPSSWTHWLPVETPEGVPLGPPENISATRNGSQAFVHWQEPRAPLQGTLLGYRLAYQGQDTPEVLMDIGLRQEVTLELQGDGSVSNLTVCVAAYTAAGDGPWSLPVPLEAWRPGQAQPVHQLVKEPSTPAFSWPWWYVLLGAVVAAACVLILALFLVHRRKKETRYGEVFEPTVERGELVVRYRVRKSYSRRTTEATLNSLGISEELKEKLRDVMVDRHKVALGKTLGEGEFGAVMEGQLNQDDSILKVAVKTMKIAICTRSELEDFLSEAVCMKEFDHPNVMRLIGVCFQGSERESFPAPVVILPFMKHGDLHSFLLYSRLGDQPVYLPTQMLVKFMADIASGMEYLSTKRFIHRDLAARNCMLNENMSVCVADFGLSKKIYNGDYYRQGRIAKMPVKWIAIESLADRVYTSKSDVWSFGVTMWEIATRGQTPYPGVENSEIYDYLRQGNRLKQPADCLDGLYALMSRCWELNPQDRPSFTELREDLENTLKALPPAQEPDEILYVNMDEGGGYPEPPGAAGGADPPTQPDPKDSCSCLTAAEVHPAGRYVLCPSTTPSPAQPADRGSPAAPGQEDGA

Mia-Paca-2 = assay: MTT antiproliferative assay, Mia-Paca-2; assay type: cell-based, human; conditions: Homo sapiens, MIA PaCa-2, 72 h, read-out: IC50 Mia-Paca-2
NIH3T3 = assay: MTT assay, NIH3T3 non-cancer cell line; assay type: cell-based; conditions: Mus musculus, NIH3T3, 72 h, read-out: IC50 NIH3T3
NTRK2 (TrkB) = NTRK2 (TrkB) (Homo sapiens, UniProt Q16620); assay: Radiometric kinase assay; assay type: biochemical; conditions: read-out: Kinase inhibition (%) NTRK2 (TrkB)
PDGFRA (PDGFRα) = PDGFRA (PDGFRα) (Homo sapiens, UniProt P16234); assay: Radiometric kinase assay; assay type: biochemical; conditions: for inhibition at 10 µM: read-out: Kinase inhibition (%) PDGFRA (PDGFRα)
HT-29 = assay: MTT antiproliferative assay, HT-29; assay type: cell-based, human; conditions: Homo sapiens, HT-29, 72 h, read-out: IC50 HT-29
AsPC-1 = assay: MTT antiproliferative assay, AsPC-1; assay type: cell-based, human; conditions: Homo sapiens, ASPC1, 72 h, read-out: IC50 AsPC-1
EBC-1 = assay: MTT antiproliferative assay, EBC-1; assay type: cell-based, human; conditions: Homo sapiens, EBC-1, 72 h, read-out: IC50 EBC-1
MCF-7 = assay: MTT antiproliferative assay, MCF-7; assay type: cell-based, human; conditions: Homo sapiens, MCF7, 72 h, read-out: IC50 MCF-7
KIT (c-Kit) = KIT (c-Kit) (Homo sapiens, UniProt P10721); assay: Radiometric kinase assay; assay type: biochemical; conditions: read-out: Kinase inhibition (%) KIT (c-Kit)
AKT1 = AKT1 (Homo sapiens, UniProt P31749); assay: Radiometric kinase assay; assay type: biochemical; conditions: read-out: Kinase inhibition (%) AKT1
CDK2/cyclin A = CDK2/cyclin A (Homo sapiens, UniProt P24941); assay: Radiometric kinase assay; assay type: biochemical; conditions: for inhibition at 10 µM: read-out: Kinase inhibition (%) CDK2/cyclin A
ABL1 = ABL1 (Homo sapiens, UniProt P00519); assay: Radiometric kinase assay; assay type: biochemical; conditions: read-out: Kinase inhibition (%) ABL1
PDGFRB (PDGFRβ) = PDGFRB (PDGFRβ) (Homo sapiens, UniProt P09619); assay: Radiometric kinase assay; assay type: biochemical; conditions: read-out: Kinase inhibition (%) PDGFRB (PDGFRβ)
AsPC-1 cells [1] = assay: Cell cycle test, RNase/PI flow cytometry; assay type: cell-based, human; conditions: AsPC-1, 3, 10, 30, 50 µM, 48 h
AsPC-1 cells [2] = assay: Apoptosis by Hoechst 33,258 staining; assay type: cell-based, human; conditions: AsPC-1, 10 and 30 µM, 48 h
MAP2K1 = MAP2K1 (Homo sapiens, UniProt Q02750); assay: Radiometric kinase assay; assay type: biochemical; conditions: read-out: Kinase inhibition (%) MAP2K1
BRAF = BRAF (Homo sapiens, UniProt P15056); assay: Radiometric kinase assay; assay type: biochemical; conditions: read-out: Kinase inhibition (%) BRAF
IGF1R = IGF1R (Homo sapiens, UniProt P08069); assay: Radiometric kinase assay; assay type: biochemical; conditions: read-out: Kinase inhibition (%) IGF1R
WEE1 = WEE1 (Homo sapiens, UniProt P30291); assay: Radiometric kinase assay; assay type: biochemical; conditions: read-out: Kinase inhibition (%) WEE1
CHEK1 = CHEK1 (Homo sapiens, UniProt O14757); assay: Radiometric kinase assay; assay type: biochemical; conditions: read-out: Kinase inhibition (%) CHEK1
PIK3CA = PIK3CA (Homo sapiens, UniProt P42336); assay: Radiometric kinase assay; assay type: biochemical; conditions: read-out: Kinase inhibition (%) PIK3CA
ERBB2 (Her-2) = ERBB2 (Her-2) (Homo sapiens, UniProt P04626); assay: Radiometric kinase assay; assay type: biochemical; conditions: read-out: Kinase inhibition (%) ERBB2 (Her-2)
ROS1 = ROS1 (Homo sapiens, UniProt P08922); assay: Radiometric kinase assay; assay type: biochemical; conditions: read-out: Kinase inhibition (%) ROS1
AURKA = AURKA (Homo sapiens, UniProt O14965); assay: Radiometric kinase assay; assay type: biochemical; conditions: read-out: Kinase inhibition (%) AURKA
CDK6/cyclinD3 = CDK6/cyclinD3 (Homo sapiens, UniProt Q00534); assay: Radiometric kinase assay; assay type: biochemical; conditions: read-out: Kinase inhibition (%) CDK6/cyclinD3
NTRK3 (TrkC) = NTRK3 (TrkC) (Homo sapiens, UniProt Q16288); assay: Radiometric kinase assay; assay type: biochemical; conditions: read-out: Kinase inhibition (%) NTRK3 (TrkC)
FLT4 (VEGFR3) = FLT4 (VEGFR3) (Homo sapiens, UniProt P35916); assay: Radiometric kinase assay; assay type: biochemical

PDGFRA (PDGFRα), sequence (P16234 24-1089): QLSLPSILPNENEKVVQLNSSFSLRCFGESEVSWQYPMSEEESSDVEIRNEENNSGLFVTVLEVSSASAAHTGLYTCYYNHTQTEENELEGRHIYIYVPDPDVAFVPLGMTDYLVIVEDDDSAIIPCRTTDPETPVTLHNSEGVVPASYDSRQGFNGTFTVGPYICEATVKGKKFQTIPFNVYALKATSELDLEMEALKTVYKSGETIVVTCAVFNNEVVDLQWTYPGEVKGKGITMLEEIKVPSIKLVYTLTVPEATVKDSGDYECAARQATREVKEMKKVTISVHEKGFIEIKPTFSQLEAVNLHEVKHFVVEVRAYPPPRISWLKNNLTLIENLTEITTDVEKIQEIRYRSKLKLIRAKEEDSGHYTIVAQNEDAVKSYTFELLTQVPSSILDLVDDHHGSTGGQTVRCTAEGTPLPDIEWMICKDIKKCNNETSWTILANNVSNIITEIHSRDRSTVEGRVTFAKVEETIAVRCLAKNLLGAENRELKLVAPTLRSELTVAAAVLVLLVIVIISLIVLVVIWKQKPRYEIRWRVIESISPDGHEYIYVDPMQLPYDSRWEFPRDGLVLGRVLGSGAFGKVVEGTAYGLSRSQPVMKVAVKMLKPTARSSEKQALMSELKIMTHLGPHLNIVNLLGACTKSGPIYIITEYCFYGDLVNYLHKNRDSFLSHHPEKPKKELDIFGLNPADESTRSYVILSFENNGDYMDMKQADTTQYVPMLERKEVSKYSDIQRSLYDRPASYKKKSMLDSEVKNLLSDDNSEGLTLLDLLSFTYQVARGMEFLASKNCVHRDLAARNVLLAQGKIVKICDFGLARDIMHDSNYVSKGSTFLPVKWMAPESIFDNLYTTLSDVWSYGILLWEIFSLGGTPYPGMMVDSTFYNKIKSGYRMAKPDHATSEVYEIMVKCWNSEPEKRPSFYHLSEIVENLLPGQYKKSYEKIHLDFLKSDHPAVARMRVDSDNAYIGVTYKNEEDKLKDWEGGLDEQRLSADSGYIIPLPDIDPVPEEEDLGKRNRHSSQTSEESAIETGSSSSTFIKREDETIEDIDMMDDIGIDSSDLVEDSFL
PDGFRB (PDGFRβ), sequence (P09619 33-1106): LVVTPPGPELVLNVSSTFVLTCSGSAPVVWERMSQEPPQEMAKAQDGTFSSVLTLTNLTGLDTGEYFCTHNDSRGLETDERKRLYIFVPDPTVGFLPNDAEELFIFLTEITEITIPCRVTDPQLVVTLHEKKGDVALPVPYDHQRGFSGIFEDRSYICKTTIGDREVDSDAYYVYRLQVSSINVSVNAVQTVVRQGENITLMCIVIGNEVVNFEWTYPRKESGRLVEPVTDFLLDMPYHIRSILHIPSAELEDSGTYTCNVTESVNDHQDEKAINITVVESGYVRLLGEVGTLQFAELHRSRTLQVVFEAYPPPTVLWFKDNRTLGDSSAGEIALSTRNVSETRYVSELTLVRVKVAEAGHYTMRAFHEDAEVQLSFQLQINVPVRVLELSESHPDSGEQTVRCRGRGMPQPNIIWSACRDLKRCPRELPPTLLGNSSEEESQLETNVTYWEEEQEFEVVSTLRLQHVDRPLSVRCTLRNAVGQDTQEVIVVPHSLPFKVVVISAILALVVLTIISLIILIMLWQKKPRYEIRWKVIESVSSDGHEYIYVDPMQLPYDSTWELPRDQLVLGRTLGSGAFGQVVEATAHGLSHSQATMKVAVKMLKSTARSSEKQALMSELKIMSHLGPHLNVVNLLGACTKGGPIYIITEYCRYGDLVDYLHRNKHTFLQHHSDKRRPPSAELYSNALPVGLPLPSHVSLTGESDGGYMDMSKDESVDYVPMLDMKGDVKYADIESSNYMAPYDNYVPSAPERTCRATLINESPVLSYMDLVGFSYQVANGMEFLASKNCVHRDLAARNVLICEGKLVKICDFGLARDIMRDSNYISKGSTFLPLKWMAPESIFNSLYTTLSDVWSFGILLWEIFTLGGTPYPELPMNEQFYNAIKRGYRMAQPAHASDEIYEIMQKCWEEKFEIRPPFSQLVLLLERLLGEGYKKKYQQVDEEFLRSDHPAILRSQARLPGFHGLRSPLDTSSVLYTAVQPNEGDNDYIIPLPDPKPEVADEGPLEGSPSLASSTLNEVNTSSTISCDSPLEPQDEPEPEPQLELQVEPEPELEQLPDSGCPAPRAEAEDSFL
KIT (c-Kit), sequence (P10721 26-976): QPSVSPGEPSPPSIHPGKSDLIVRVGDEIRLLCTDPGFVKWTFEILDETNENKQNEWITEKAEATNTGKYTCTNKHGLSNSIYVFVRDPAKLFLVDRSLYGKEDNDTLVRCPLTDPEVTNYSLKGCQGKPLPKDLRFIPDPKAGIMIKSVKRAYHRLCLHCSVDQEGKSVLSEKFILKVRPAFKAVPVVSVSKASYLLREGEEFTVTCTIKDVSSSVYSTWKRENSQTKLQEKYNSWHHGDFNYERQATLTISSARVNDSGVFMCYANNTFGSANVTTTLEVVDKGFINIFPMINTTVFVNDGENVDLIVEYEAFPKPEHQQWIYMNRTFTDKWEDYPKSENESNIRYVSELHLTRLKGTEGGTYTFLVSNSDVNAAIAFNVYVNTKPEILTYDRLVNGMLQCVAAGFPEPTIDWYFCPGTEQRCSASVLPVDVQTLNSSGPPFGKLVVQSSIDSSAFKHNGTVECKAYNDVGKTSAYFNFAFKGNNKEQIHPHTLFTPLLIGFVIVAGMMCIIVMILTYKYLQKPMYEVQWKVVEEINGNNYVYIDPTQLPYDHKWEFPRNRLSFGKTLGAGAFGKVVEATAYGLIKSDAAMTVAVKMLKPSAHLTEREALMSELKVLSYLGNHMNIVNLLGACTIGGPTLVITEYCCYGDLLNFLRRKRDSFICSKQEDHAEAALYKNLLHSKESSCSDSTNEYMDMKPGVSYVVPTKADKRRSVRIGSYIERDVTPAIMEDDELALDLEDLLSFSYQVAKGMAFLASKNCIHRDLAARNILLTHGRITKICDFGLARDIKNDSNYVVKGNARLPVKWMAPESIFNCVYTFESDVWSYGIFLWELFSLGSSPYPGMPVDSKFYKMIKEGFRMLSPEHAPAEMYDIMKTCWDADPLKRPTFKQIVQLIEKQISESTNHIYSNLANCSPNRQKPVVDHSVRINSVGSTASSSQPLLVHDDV
NTRK1 (TrkA), sequence (P04629 33-796): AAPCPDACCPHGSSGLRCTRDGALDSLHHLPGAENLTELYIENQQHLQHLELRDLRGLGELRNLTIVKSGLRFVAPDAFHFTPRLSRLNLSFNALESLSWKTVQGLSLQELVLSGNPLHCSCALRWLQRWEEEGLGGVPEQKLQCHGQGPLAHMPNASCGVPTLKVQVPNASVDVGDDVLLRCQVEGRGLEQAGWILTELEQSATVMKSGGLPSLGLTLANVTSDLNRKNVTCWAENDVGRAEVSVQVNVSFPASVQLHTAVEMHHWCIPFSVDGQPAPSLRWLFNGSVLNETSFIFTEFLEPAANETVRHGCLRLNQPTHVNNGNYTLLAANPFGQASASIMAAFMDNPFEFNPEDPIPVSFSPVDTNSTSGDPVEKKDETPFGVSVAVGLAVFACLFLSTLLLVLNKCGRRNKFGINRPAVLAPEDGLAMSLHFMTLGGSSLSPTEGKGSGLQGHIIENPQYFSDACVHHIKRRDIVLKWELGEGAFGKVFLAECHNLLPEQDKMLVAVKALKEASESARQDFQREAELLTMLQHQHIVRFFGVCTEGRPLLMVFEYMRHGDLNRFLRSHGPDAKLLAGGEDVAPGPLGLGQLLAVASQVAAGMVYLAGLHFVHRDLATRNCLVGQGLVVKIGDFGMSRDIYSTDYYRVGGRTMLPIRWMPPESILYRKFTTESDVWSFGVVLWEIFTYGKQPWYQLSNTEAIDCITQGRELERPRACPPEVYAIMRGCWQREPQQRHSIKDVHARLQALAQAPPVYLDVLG
FGFR1, sequence (P11362 22-822): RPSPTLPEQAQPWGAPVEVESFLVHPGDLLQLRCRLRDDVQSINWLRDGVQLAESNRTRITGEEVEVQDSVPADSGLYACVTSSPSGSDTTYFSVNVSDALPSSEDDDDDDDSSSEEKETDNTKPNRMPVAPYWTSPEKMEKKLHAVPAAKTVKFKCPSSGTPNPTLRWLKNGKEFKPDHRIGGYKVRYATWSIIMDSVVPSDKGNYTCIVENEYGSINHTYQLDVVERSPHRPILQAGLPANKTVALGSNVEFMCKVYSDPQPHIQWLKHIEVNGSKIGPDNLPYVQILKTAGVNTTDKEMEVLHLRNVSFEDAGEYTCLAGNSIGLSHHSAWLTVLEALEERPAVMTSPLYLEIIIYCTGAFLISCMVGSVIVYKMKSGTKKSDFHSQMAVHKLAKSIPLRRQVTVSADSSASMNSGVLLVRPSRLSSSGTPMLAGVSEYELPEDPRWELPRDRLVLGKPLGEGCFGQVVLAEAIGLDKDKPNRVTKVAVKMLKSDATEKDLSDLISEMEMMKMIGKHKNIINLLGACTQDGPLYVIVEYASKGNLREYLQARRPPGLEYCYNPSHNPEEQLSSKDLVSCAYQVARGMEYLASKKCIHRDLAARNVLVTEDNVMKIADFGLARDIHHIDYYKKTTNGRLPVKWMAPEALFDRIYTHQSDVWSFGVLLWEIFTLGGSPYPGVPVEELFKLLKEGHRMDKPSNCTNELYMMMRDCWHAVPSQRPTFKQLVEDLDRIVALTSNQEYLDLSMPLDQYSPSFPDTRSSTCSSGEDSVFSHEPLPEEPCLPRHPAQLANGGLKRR
MAP2K1, sequence (Q02750 whole entry): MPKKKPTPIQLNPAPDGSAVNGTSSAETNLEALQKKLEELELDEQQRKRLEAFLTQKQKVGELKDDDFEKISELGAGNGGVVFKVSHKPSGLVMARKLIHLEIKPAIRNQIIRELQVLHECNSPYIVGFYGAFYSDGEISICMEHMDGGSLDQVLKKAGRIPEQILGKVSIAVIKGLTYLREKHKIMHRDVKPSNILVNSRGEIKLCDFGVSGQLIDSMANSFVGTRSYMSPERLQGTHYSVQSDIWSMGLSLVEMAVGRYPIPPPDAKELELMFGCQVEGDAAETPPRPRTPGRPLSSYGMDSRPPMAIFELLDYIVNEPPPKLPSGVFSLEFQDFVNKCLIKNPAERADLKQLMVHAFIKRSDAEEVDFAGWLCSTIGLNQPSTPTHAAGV

O=C1C=C(Nc2ccc(OCc3cn(Cc4ccc(Br)cc4)nn3)cc2)C(=O)c2ccccc21 [Compound 4b, 2-((4-((1-(4-Bromobenzyl)−1H-1,2,3-triazol-4 yl)methoxy)phenyl)amino) naphthalene-1,4-dione]
inhibition at 10 µM (FLT1 (VEGFR1)): -17%
inhibition at 10 µM (KDR (VEGFR2)): -19%
inhibition at 10 µM (NTRK1 (TrkA)): 4%
inhibition at 10 µM (FLT3): -3%
inhibition at 10 µM (MET): -8%
inhibition at 10 µM (AKT2): -10%
inhibition at 10 µM (ALK): 2%
inhibition at 10 µM (EGFR): -9%
inhibition at 10 µM (FGFR1): 1%
inhibition at 10 µM (AXL): 5%
IC50 (Mia-Paca-2): 1.3 ± 0.4 µM
IC50 (NIH3T3): 50.9 ± 8.8 µM
inhibition at 10 µM (NTRK2 (TrkB)): 13%
inhibition at 10 µM (PDGFRA (PDGFRα)): 37%
IC50 (HT-29): 56.9 ± 4.3 µM
IC50 (AsPC-1): 30.7 ± 2.2 µM
IC50 (EBC-1): 2 ± 1.2 µM
IC50 (MCF-7): > 100 µM
inhibition at 10 µM (KIT (c-Kit)): -9%
inhibition at 10 µM (AKT1): 9%
inhibition at 10 µM (CDK2/cyclin A): 32%
inhibition at 10 µM (ABL1): 2%
inhibition at 10 µM (PDGFRB (PDGFRβ)): 17%

O=C1C=C(Nc2ccc(OCc3cn(Cc4ccccc4)nn3)cc2)C(=O)c2ccccc21 [Compound 4a, 2-((4-((1-Benzyl-1H-1,2,3-triazol-4-yl)methoxy)phenyl)amino)naphthalene-1,4-dione]
inhibition at 10 µM (FLT1 (VEGFR1)): -16%
inhibition at 10 µM (KDR (VEGFR2)): 20%
inhibition at 10 µM (NTRK1 (TrkA)): 43%
Effect on cell cycle distribution (S and G2/M phases) (AsPC-1 cells [1]): dose-dependently increased the number of cells in the S phase and simultaneously reduced the cells in G2/M phase
Apoptosis induction (nuclear morphology) (AsPC-1 cells [2]): characteristic features of apoptosis including densely packed chromatin within the nucleus as well as nuclear fragmentation
inhibition at 10 µM (MAP2K1): 9%
inhibition at 10 µM (BRAF): 3%
inhibition at 10 µM (IGF1R): -3%
inhibition at 10 µM (WEE1): 6%
inhibition at 10 µM (AKT2): 25%
inhibition at 10 µM (ALK): 16%
inhibition at 10 µM (EGFR): -5%
inhibition at 10 µM (FGFR1): 14%
inhibition at 10 µM (CHEK1): -20%
inhibition at 10 µM (PIK3CA): 14%
inhibition at 10 µM (ERBB2 (Her-2)): 3%
inhibition at 10 µM (ROS1): -6%
inhibition at 10 µM (AXL): 14%
IC50 (Mia-Paca-2): > 100 µM
inhibition at 10 µM (AURKA): -3%
IC50 (NIH3T3): 85.5 ± 19.6 µM
IC50 (PDGFRA (PDGFRα)): 0.629 ± 0.087 µM
inhibition at 10 µM (PDGFRA (PDGFRα)): 71%
IC50 (HT-29): 21.9 ± 3.9 µM
IC50 (AsPC-1): 23.5 ± 5.8 µM
IC50 (EBC-1): 5.1 ± 1.2 µM
IC50 (MCF-7): > 100 µM
inhibition at 10 µM (KIT (c-Kit)): 1%
inhibition at 10 µM (AKT1): 19%
inhibition at 10 µM (CDK6/cyclinD3): 9%
IC50 (CDK2/cyclin A): 1.67 ± 0.115 µM
inhibition at 10 µM (CDK2/cyclin A): 73%
inhibition at 10 µM (NTRK3 (TrkC)): 40%
inhibition at 10 µM (ABL1): 7%
inhibition at 10 µM (PDGFRB (PDGFRβ)): 16%
IC50 (FLT4 (VEGFR3)): 0.554 ± 0.002 µM
inhibition at 10 µM (FLT4 (VEGFR3); read-out: Kinase inhibition (%) FLT4 (VEGFR3)): 87%
